Experimental data reported in ChEMBL document CHEMBL3885881, “DrugMatrix”.

Species on record: Rattus norvegicus
Test: DrugMatrix - Regimen: Daily Repeat
Format: toxicity, organism-based, Sprague-Dawley
Parameters: regimen Daily Repeat, gender Male, age 6-8 weeks
Conditions: in vivo, po, route oral GAVAGE, vehicle .5 % CMC; for ABSOLUTE BASOPHIL / ABSOLUTE EOSINOPHIL / ABSOLUTE LYMPHOCYTE / ABSOLUTE MONOCYTE / ABSOLUTE SEGMENTED NEUTROPHIL / BASOPHIL / EOSINOPHIL / ERYTHROCYTE COUNT / HEMATOCRIT / HEMOGLOBIN / LEUKOCYTE COUNT / LYMPHOCYTE / MEAN CORPUSCULAR HEMOGLOBIN / MEAN CORPUSCULAR HEMOGLOBIN CONCENTRATION / MEAN CORPUSCULAR VOLUME / MONOCYTE / NEUTROPHIL / NUCLEATED RED BLOOD CELLS / PLATELET COUNT: tissue Blood; for ALANINE AMINOTRANSFERASE / ALBUMIN / ALKALINE PHOSPHATASE / ASPARTATE AMINOTRANSFERASE / BLOOD UREA NITROGEN / CARBON DIOXIDE / CHLORIDE / CHOLESTEROL / CREATINE PHOSPHOKINASE / CREATININE / GLUCOSE / LACTATE DEHYDROGENASE / LIPASE / PHOSPHORUS / POTASSIUM / SODIUM / TOTAL BILIRUBIN / TOTAL PROTEIN / URIC ACID: tissue Plasma
[1] = 0 mg/kg, 72 h, dose level Control, time 3 day
[2] = 0 mg/kg, 120 h, dose level Control, time 5 day
[3] = 19 mg/kg, 72 h, dose level High, time 3 day

## NCC(CC(=O)O)c1ccc(Cl)cc1 (centres undefined) [BACLOFEN]
[1]
  ABSOLUTE BASOPHIL: 0 CELLS/uL
  ABSOLUTE EOSINOPHIL: 171.33 CELLS/uL
  ABSOLUTE LYMPHOCYTE: 13776.5 CELLS/uL
  ABSOLUTE MONOCYTE: 180.83 CELLS/uL
  ABSOLUTE SEGMENTED NEUTROPHIL: 1121.33 CELLS/uL
  BASOPHIL: 0%
  EOSINOPHIL: 1%
  ERYTHROCYTE COUNT: 5.56 x10E6/uL
  HEMATOCRIT: 34.75%
  HEMOGLOBIN: 13.68 G/DL
  LEUKOCYTE COUNT: 15.25 x10E3/uL
  LYMPHOCYTE: 90.17%
  MEAN CORPUSCULAR HEMOGLOBIN: 24.6 pg
  MEAN CORPUSCULAR HEMOGLOBIN CONCENTRATION: 39.4 G/DL
  MEAN CORPUSCULAR VOLUME: 62.48 fL
  MONOCYTE: 1.17%
  NEUTROPHIL: 7.67%
  NUCLEATED RED BLOOD CELLS: 0 /100WBC
  PLATELET COUNT: 1342 x10E3/uL
  ALANINE AMINOTRANSFERASE: 49.67 u/L
  ALBUMIN: 4.15 G/DL
  ALKALINE PHOSPHATASE: 346.83 u/L
  ASPARTATE AMINOTRANSFERASE: 108.17 u/L
  BLOOD UREA NITROGEN: 17.33 mg/dL
  CARBON DIOXIDE: 25 mmol/L
  CHLORIDE: 100.83 MEQ/L
  CHOLESTEROL: 66.83 mg/dL
  CREATINE PHOSPHOKINASE: 788 u/L
  CREATININE: 0.18 mg/dL
  GLUCOSE: 151.67 mg/dL
  LACTATE DEHYDROGENASE: 982.5 u/L
  LIPASE: 10.33 u/L
  PHOSPHORUS: 11.23 mg/dL
  POTASSIUM: 6.37 MEQ/L
  SODIUM: 141.02 MEQ/L
  TOTAL BILIRUBIN: 0.18 mg/dL
  TOTAL PROTEIN: 5.9 G/DL
  URIC ACID: 1.8 mg/dL
[2]
  ABSOLUTE BASOPHIL: 0 CELLS/uL
  ABSOLUTE EOSINOPHIL: 69 CELLS/uL
  ABSOLUTE LYMPHOCYTE: 13632.83 CELLS/uL
  ABSOLUTE MONOCYTE: 139.83 CELLS/uL
  ABSOLUTE SEGMENTED NEUTROPHIL: 1225 CELLS/uL
  BASOPHIL: 0%
  EOSINOPHIL: 0.33%
  ERYTHROCYTE COUNT: 5.52 x10E6/uL
  HEMATOCRIT: 33.98%
  HEMOGLOBIN: 13.22 G/DL
  LEUKOCYTE COUNT: 15.07 x10E3/uL
  LYMPHOCYTE: 90.83%
  MEAN CORPUSCULAR HEMOGLOBIN: 23.95 pg
  MEAN CORPUSCULAR HEMOGLOBIN CONCENTRATION: 38.9 G/DL
  MEAN CORPUSCULAR VOLUME: 61.53 fL
  MONOCYTE: 0.83%
  NEUTROPHIL: 8%
  NUCLEATED RED BLOOD CELLS: 0 /100WBC
  PLATELET COUNT: 1196 x10E3/uL
  ALANINE AMINOTRANSFERASE: 49.17 u/L
  ALBUMIN: 4.2 G/DL
  ALKALINE PHOSPHATASE: 352.33 u/L
  ASPARTATE AMINOTRANSFERASE: 89.67 u/L
  BLOOD UREA NITROGEN: 18 mg/dL
  CARBON DIOXIDE: 27.67 mmol/L
  CHLORIDE: 101 MEQ/L
  CHOLESTEROL: 72.83 mg/dL
  CREATINE PHOSPHOKINASE: 417.5 u/L
  CREATININE: 0.18 mg/dL
  GLUCOSE: 150.5 mg/dL
  LACTATE DEHYDROGENASE: 517.33 u/L
  LIPASE: 9 u/L
  PHOSPHORUS: 11.87 mg/dL
  POTASSIUM: 6.57 MEQ/L
  SODIUM: 143.62 MEQ/L
  TOTAL BILIRUBIN: 0.2 mg/dL
  TOTAL PROTEIN: 6.08 G/DL
  URIC ACID: 1.45 mg/dL
[3]
  ABSOLUTE BASOPHIL: 0 CELLS/uL
  ABSOLUTE EOSINOPHIL: 0 CELLS/uL
  ABSOLUTE LYMPHOCYTE: 12161.33 CELLS/uL
  ABSOLUTE MONOCYTE: 182.33 CELLS/uL
  ABSOLUTE SEGMENTED NEUTROPHIL: 1123 CELLS/uL
  BASOPHIL: 0%
  EOSINOPHIL: 0%
  ERYTHROCYTE COUNT: 5.27 x10E6/uL
  HEMATOCRIT: 34.17%
  HEMOGLOBIN: 13.33 G/DL
  LEUKOCYTE COUNT: 13.47 x10E3/uL
  LYMPHOCYTE: 90.33%
  MEAN CORPUSCULAR HEMOGLOBIN: 25.37 pg
  MEAN CORPUSCULAR HEMOGLOBIN CONCENTRATION: 39.03 G/DL
  MEAN CORPUSCULAR VOLUME: 64.97 fL
  MONOCYTE: 1.33%
  NEUTROPHIL: 8.33%
  NUCLEATED RED BLOOD CELLS: 0 /100WBC
  PLATELET COUNT: 1177 x10E3/uL
  ALANINE AMINOTRANSFERASE: 54.33 u/L
  ALBUMIN: 4.03 G/DL
  ALKALINE PHOSPHATASE: 373.67 u/L
  ASPARTATE AMINOTRANSFERASE: 85.33 u/L
  BLOOD UREA NITROGEN: 15.33 mg/dL
  CARBON DIOXIDE: 26.33 mmol/L
  CHLORIDE: 101.67 MEQ/L
  CHOLESTEROL: 64 mg/dL
  CREATINE PHOSPHOKINASE: 394.67 u/L
  CREATININE: 0.16 mg/dL
  GLUCOSE: 125 mg/dL
  LACTATE DEHYDROGENASE: 438.33 u/L
  LIPASE: 10 u/L
  PHOSPHORUS: 11.93 mg/dL
  POTASSIUM: 7.01 MEQ/L
  SODIUM: 142.53 MEQ/L
  TOTAL BILIRUBIN: 0.2 mg/dL
  TOTAL PROTEIN: 5.53 G/DL
  URIC ACID: 1.57 mg/dL
